Source: patent publication US7179898B1, “Human vanilloid receptor-like receptor” (Merck & Co., Inc., priority 1998, dated 2007)

What was measured:
[1] = biological target: T1, human vanilloid receptor-like receptor (VR-L) (Homo sapiens, UniProt Q9Y5S1); experiment: Xenopus oocyte expression, two-electrode voltage clamp at -70 mV; type: cell-based; details: 1 μM capsaicin in the perfusate; Xenopus oocytes expressing human vr-l cDNA
T1 sequence (Q9Y5S1 1-764): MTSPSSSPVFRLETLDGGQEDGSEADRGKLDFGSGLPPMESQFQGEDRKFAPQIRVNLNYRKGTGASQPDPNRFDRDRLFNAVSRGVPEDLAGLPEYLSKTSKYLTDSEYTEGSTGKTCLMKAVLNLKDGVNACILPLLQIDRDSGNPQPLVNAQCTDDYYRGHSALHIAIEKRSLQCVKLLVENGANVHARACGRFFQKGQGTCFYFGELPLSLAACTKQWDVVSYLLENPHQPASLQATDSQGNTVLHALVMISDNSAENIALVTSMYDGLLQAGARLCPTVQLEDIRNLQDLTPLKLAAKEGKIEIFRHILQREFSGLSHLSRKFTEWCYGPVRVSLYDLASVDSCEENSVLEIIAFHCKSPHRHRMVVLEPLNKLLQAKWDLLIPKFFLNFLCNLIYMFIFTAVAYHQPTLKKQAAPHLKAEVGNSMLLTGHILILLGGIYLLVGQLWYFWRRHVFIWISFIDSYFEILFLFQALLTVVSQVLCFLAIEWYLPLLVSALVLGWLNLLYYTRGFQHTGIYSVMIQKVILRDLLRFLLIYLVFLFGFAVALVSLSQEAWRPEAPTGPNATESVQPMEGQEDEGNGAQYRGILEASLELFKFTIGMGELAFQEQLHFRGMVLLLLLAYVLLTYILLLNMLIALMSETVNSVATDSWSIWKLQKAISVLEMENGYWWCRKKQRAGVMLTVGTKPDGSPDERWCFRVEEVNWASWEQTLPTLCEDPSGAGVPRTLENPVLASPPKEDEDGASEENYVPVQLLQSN
Protocol: Adult female Xenopus laevis were anaesthetized by immersion in a 0.4% solution of 3-aminobenzoic acid ethylester for 30–45 mins (or until unresponsive). Ovary tissue was removed via a small abdominal incision and Stage V and VI oocytes were isolated with fine forceps. After mild collagenase treatment to remove follicle cells (Type 1A, 0.5 mg mL^−1, for 8 mins), the oocyte nuclei were directly injected with 10–20 nl of injection buffer (88 mM NaCl, 1 mM KCl, 15 mM HEPES, at pH 7, filtered through nitrocellulose) or sterile water containing vr-l cDNA engineered into the expression vector pcDNA3.1Zeo. Following incubation for 48 hrs, oocytes were placed in a 50 μL bath and perfused at 4–6 mL min^−1 with modified Barth's medium (MBS) consisting of 88 mM NaCl, 1 mM KCl, 10 mM HEPES, 0.82 mM MgSO4, 0.33 mM Ca(NO3)2, 0.91 mM CaCl2, 2.4 mM NaHCO3, at pH 7.5. Cells were impaled with two 1–3 MΩ electrodes containing 2 M KCl and voltage clamped between at −70 mV. Drugs were applied in the perfusate and heat was applied by bath applying preheated MBS.

[2] = biological target: T1, human vanilloid receptor-like receptor (VR-L); experiment: Whole-cell patch clamp of HEK 293 cells transiently transfected with vr-l cDNA; type: cell-based; parameters: identified as together containing the entire coding region of the VR-L gene; expressed in transfected cells; host or cells: HEK 293 cells, transient transfection; details: 1 μM capsaicin by fast perfusion; HEK 293 cells expressing human vr-l cDNA, -60 mV
Text: A glass coverslip containing a monolayer of human embryonic kidney (HEK) 293 cells transiently transfected with the vr-l cDNA was placed in a perspex chamber mounted on the stage of a Nikon Diaphot inverted phase-contrast microscope and continuously perfused with calcium-free artificial cerebrospinal fluid (aCSF, see below). Fire-polished patch pipettes were pulled on program 10 of a WZ, DMZ-Universal puller using conventional 120TF-10 electrode-glass. Pipette tip diameter was generally 1.5–2.5 μM, resistances were approximately 4MΩ. The intracellular pipette solution used is detailed below. High resistance (>10 GΩ) seals were formed by advancing the pipette onto the cell and exerting gentle suction to break through the membrane. The cells were voltage-clamped at −60 mV, using an Axon Axopatch 2 amplifier. Drugs or heated aCSF were applied to the cell under study by fast perfusion using a large internal diameter (50–100 μM) triple-barrel pipette assembly. Drug responses were obtained by rapidly positioning the perfusion pipette to completely envelop the cell in drug solution. This was achieved via a Biologic rapid solution changer which pivots the barrels into the desired position. Fast washout was obtained by re-positioning the washout barrel in line with the cell. [table] [table]

response (inward current) to application of drug [1]: No responses
response (inward current) to application of drug [2]: No responses
Structure (SMILES): COc1cc(CNC(=O)CCCC/C=C/C(C)C)ccc1O [capsaicin]
